Test results reported in patent publication US20160074338A1, “FOOD COMPOSITION FOR PREVENTING OBESITY, PHARMACEUTICAL COMPOSITION FOR TREATING OBESITY, AND ANIMAL MEDICINE FOR TREATING OBESITY, CONTAINING GINGERNONE A” (SNU R&DB Foundation, priority 2011, published 2016).

Columns and labels:
Format in all cases: cell-based
[1] = test system: C/EBPα; assay: Western blotting of C/EBPα protein expression in differentiating 3T3-L1 cells; settings: MDI-differentiated 3T3-L1 cells; for C/EBPα expression level: 40 μM, FIG. 5 comparison
Procedure: (§1) In Experimental Example 4, it was confirmed by Western blotting that gingerenone A affects important transcriptional factors, C/EBPα and PPARγ, and FAS protein expressed by a transcriptional factor thereof, expressed upon fat cell differentiation (B. L. Upham et al., Carcinogenesis. 18:37-42, 1997).
(§2) Post-confluent 3T3-L1 cells were cultured in DMEM supplemented with MDI, 10% FBS and 10 ml/L of antibiotic-antimycotic agent. In this media, we additionally treated with or without gingerenone A (10, 20 and 40 μM) for 2 days. For the next 2 to 4 days, the cells were further cultured. Here, the culture media was prepared by adding gingerenone A at concentrations of 10, 20 and 40 μM to DMEM media comprising insulin, 10% FBS and 1% antibiotic-antimycotic agent. For the next 4 to 6 days, the cells were further cultured in media comprising 10% FBS, 1% antibiotic-antimycotic agent and gingerenone A. Here, gingerenone A was added at concentrations of 10, 20 and 40 μM to the DMEM media. To extract protein from the cultured cells, after washing two times with cold PBS (phosphate buffered saline), the cells were lysed with a protein extraction solution. The protein extraction solution was RIPA buffer (50 mM, Tris pH 8.0, 150 mM NaCl, 1% NP-40, 5 mM EDTA and 1 mM PMSF) comprising 0.5% protease inhibitor (SIGMA-ALDRICH) and 0.5% phosphatase inhibitor (250 mM sodium fluoride, 5 mM sodium orthovanadate, 50 mM sodium pyrophosphate and 50 mM glycerophosphate). The cell lysates were centrifuged at 4° C. for 20 minutes at a rate of 12000 rpm. Supernatant formed by centrifugation was transferred to new 1.5 mL Eppendorf tubes. The protein content of the supernatants was determined using a DC assay kit (Bio-Rad Corp., Richmond, Calif., USA). The DC assay kit uses BSA (bovine serum albumin) as a standard solution. After mixing 20 to 50 μg of the protein with a sample buffer comprising bromophenol blue and denaturing the protein at 100° C. for 5 minutes, the denatured proteins were separated on a 12% SDS-polyacrylamide gel. […]

[2] = test system: FAS (fatty acid synthase); assay: Western blotting of FAS protein expression in differentiating 3T3-L1 cells; settings: MDI-differentiated 3T3-L1 cells; for FAS expression level: 40 μM, FIG. 5 comparison
Procedure: as §1, §2

[3] = test system: 3T3-L1 cells; assay: MTT analysis of viability of 3T3-L1 cells
Procedure: In Experimental Example 2, in order to measure the toxicity of 3T3-L1 cells in the presence of varying concentrations of gingerenone A, MTT3-(4,5-Dimethylthiazol-2-yl)-2,5diphenyltetrazolium bromide) analysis was conducted.
First, after plating 3T3-L1 cells into 96 well plates, the cells were cultured until the 3T3-L1 cells became confluent. Thereafter, the 3T3-L1 cells were treated with gingerenone A at concentrations of 10, 20 and 40 μM. After culturing for 24 and 48 hours, MTT was added to the cultured cells to a concentration of 0.5 mg/ml. The treated cells were cultured for 4 hours at 37° C. in a 5% CO2 incubator. Thereafter, the media was removed and 200 μl of DMSO (dimethylsulfoxide) was added to measure absorbance at a wavelength of 570 nm using an absorbance reader (Versa Max, Molecular Device, California, USA). Cell viability was determined as a percentage with respect to a control treated with only MDI (0.5 mM of isobutyl-methylxanthine, 1 μM of dexamethasone and 10 μg/ml of insulin).

[4] = test system: 3T3-L1 cells; assay: Oil red O staining of fat accumulation in MDI-differentiated 3T3-L1 cells; settings: 10, 20 and 40 μM, 6 days, dependent on concentration
Procedure: In Experimental Example 3, to analyze the suppressive effects of gingerenone A on fat accumulation, oil red 0 staining was performed after inducing differentiation of the pre-adipocytes (K. Tobe et al., FEBS Lett, 215(2):345-9, 1987).
The 3T3-L1 cells (ATCC, Gaithersburg, Md.), representing pre-adipocytes, were plated into 24-well plates. The plated 3T3-L1 cell line was cultured in DMEM (Dulbecco-modified Eagle medium, WELGENE) with 10% FBS (fetal bovine serum) and 10 ml/L of antibiotic-antimycotic agent at 37° C. in a 5% CO2 incubator (MCO-15AC, SANYO E&E, Europe) until the cells reached 100% confluence.
When the 3T3-L1 cells reached 100% confluence, the cells were further cultured for 2 days in DMEM medium, in which MDI was added, with 10 ml/L of antibiotic-antimycotic agent and 10% fetal bovine serum (FBS). The media was replaced with DMEM containing 10 ml/L of insulin, 10% FBS and 10 ml/L of antibiotic-antimycotic agent for another 2 days. Thereafter, the media was changed to DMEM medium only comprising 10 ml/L of antibiotic-antimycotic agent and 10% FBS. […]
When 3T3-L1 cells were differentiated in the presence of MDI, gingerenone A was added at concentrations of 10, 20 and 40 μM to the cell culture media every third day from the day of MDI addition. […] The concentration was measured at a wavelength of 515 nm using an absorbance reader.

[5] = test system: PPARγ; assay: Western blotting of PPARγ protein expression in differentiating 3T3-L1 cells; settings: MDI-differentiated 3T3-L1 cells
Procedure: as §1
Post-confluent 3T3-L1 cells were cultured in DMEM supplemented with MDI, 10% FBS and 10 ml/L of antibiotic-antimycotic agent. In this media, we additionally treated with or without gingerenone A (10, 20 and 40 μM) for 2 days. For the next 2 to 4 days, the cells were further cultured. Here, the culture media was prepared by adding gingerenone A at concentrations of 10, 20 and 40 μM to DMEM media comprising insulin, 10% FBS and 1% antibiotic-antimycotic agent. For the next 4 to 6 days, the cells were further cultured in media comprising 10% FBS, 1% antibiotic-antimycotic agent and gingerenone A. Here, gingerenone A was added at concentrations of 10, 20 and 40 μM to the DMEM media. To extract protein from the cultured cells, after washing two times with cold PBS (phosphate buffered saline), the cells were lysed with a protein extraction solution. […] The protein content of the supernatants was determined using a DC assay kit (Bio-Rad Corp., Richmond, Calif., USA). […]

Compound	C/EBPα expression level [1]	C/EBPα protein expression level ([1]; 10, 20 and 40 μM, FIG. 4)	FAS expression level [2]	FAS protein expression level ([2]; 10, 20 and 40 μM, FIG. 4)	cytotoxicity (viability of 3T3-L1 cells) ([3]; 40 μM, 24 and 48 hours after treatment)	cytotoxicity (MTT analysis) ([3]; 3T3-L1 pre-adipocytes treated with 10, 20 and 40 μM)	cellular fat content (oil red O staining) [4]	PPARγ expression level ([5]; 40 μM, FIG. 5 comparison)	PPARγ protein expression level ([5]; 10, 20 and 40 μM, FIG. 4)
COc1cc(CC/C=C/C(=O)CCc2ccc(O)c(OC)c2)ccc1O [gingerenone A]	considerably reduced	reduced	considerably reduced	reduced	not observed	not observed	decreased	considerably reduced	reduced
CCCCC[C@H](O)CC(=O)CCc1ccc(O)c(OC)c1 [gingerol, reference compound]	slightly reduced	–	slightly reduced	–	–	–	–	–	–
